{"source": "patent US20180028594A1", "about": "“[…] OPIOID RECEPTOR AGONISTS FOR HARD TISSUE PAIN” (Cara Therapeutics, Inc., priority 2014, published 2018)", "key": {"[1]": {"system": "pro-inflammatory mediators", "test": "Production and release of pro-inflammatory mediators"}, "[2]": {"system": "postoperative pain (hard tissue surgery)", "conditions": "human, in vivo"}, "[3]": {"system": "acute and chronic visceral, inflammatory and neuropathic pain", "test": "Standard preclinical pain models, onset and duration of analgesic effect", "assay_type": "in vivo", "description": "(§1) In standard preclinical pain models, CR845 successfully attenuated acute and chronic visceral, inflammatory and neuropathic pain in a dose-dependent manner (see Table 1, below). The analgesic effect of CR845 was recordable within 15 minutes post-administration and lasted for up to 18 hours following single-dose administration."}, "[4]": {"test": "Pharmacokinetic studies, drug in extracted brain tissue", "assay_type": "in vivo", "conditions": "animals, analgesic and supra-analgesic doses"}, "mechanical hyperalgesia [5]": {"system": "mechanical hyperalgesia", "test": "Carrageenan, acute inflammatory pain model", "assay_type": "in vivo", "conditions": "Rat", "description": "as §1"}, "tactile allodynia": {"system": "tactile allodynia", "test": "L5/6 Spinal Nerve Ligation (Chung Model) of neuropathic pain", "assay_type": "in vivo, Rat", "description": "FIG. 1: Efficacy of CR845 in “Chung Model” of neuropathic pain is blocked with Peripheral (Intrapaw) administration of a kappa antagonist (norBNI) in rats. *** denotes p<0.001. compared to vehicle-treated controls (two-way ANOVA). Vehicle or Nor-BNI was administered intraplantarly (0.2 mg) 15 min prior to CR845. Injection (1 mg/kg). N=6 male rats/group, mean±SEM.\nThe peripheral mechanism of action of CR845 is supported preclinically by both biochemical in vitro assays and in vivo functional pharmacological studies. […] Moreover, in standard preclinical pain models, such as the “Chung Model” of neuropathic pain, the analgesic action of CR845 was blocked with kappa opioid receptor antagonists administered directly to the local site of injury, indicating a peripheral site of action for CR845 (FIG. 1). In the “Chung Model”, neuropathic pain is induced experimentally by ligating spinal nerves mediating sensation for a hind limb. […] Sets of different thickness filaments are used to test sensitivity, each of which is designed to produce a given force (in grams) upon bending after contact. By testing with these filaments, the minimum force to evoke a withdrawal response defines the paw withdrawal threshold. The nerve injury produces a marked reduction in paw withdrawal thresholds (increased sensitivity to force) in response to probing with the filaments."}, "mechanical hyperalgesia [6]": {"system": "mechanical hyperalgesia", "test": "Complete Freund's Adjuvant, chronic inflammatory pain model", "assay_type": "in vivo", "conditions": "Rat", "description": "as §1"}, "[7]": {"system": "Somatic and visceral pain", "test": "Acetic Acid Writhing, somato-visceral inflammatory pain model", "assay_type": "in vivo", "conditions": "Mouse", "description": "as §1"}, "[8]": {"test": "Phase 1 clinical trials, safety and sedation (Ramsey Sedation Scale)", "assay_type": "in vivo, human", "from_the_text": "The most common TEAEs across evaluated populations were transient facial tingling or numbness, dizziness, fatigue and a transient increase in urine output in the absence of electrolyte loss, or aquaresis. […] No other changes in vital signs, including supine pulse rate, blood pressure, respiratory rate, oral body temperature, or oxygen saturation were reported, nor were any clinically significant changes observed in electrocardiogram characteristics. Additionally, the CNS adverse events characteristic of prior-generation CNS-active kappa agonists, such as acute psychiatric side effects, were not observed with CR845. The potential to cause sedation was assessed using the Ramsey Sedation Scale in the ascending dose-tolerance Phase 1 trial (Study 2048-001) of I.V. CR845, which included 54 subjects (17 on placebo; 37 on CR845)."}, "[9]": {"system": "postoperative pain (soft tissue surgery)", "conditions": "human, in vivo"}}}
{"smiles": "CC(C)C[C@@H](NC(=O)[C@@H](Cc1ccccc1)NC(=O)[C@H](N)Cc1ccccc1)C(=O)N[C@H](CCCCN)C(=O)N1CCC(N)(C(=O)O)CC1", "note": "[CR845, D-Phe-D-Phe-D-Leu-D-Lys-[ω(4-aminopiperidine-4-carboxylic acid)]—OH]", "values": [{"measurement": "Production and release of pro-inflammatory mediators", "setting": "[1]", "result": "decreased the production and release of pro-inflammatory mediators"}, {"measurement": "Acute psychiatric side effects", "setting": "[2]", "result": "no evidence of acute psychiatric side effects"}, {"measurement": "Mean PID from baseline relative to placebo across 48 hour trial period", "setting": "[2]", "result": "numerically superior"}, {"measurement": "Most frequent TEAEs (greater than 10%)", "setting": "[2]", "result": "transient facial tingling and somnolence"}, {"measurement": "Reduction of incidence of nausea compared to placebo", "setting": "[2]", "result": 60, "unit": "%"}, {"measurement": "Reduction of incidence of vomiting compared to placebo", "setting": "[2]", "result": 80, "unit": "%"}, {"measurement": "SPID scores 0-24, 0-36, 0-48 compared to placebo", "setting": "[2]", "result": "Numerical improvements"}, {"measurement": "Rise of mean plasma sodium concentration from baseline", "setting": "[2]; iv, 0.005 mg/kg", "result": "approximately 3%"}, {"measurement": "SPID0-24 compared to placebo", "setting": "[2]; iv, 0.005 mg/kg", "result": "statistically significant reduction in pain intensity"}, {"measurement": "SPID0-36 compared to placebo", "setting": "[2]; iv, 0.005 mg/kg", "result": "statistically significant"}, {"measurement": "SPID0-48 compared to placebo", "setting": "[2]; iv, 0.005 mg/kg", "result": "statistically significant"}, {"measurement": "Time at which analgesic effect was recordable post-administration", "setting": "[3]", "result": "≤ 15", "unit": "min"}, {"measurement": "Duration of analgesic effect following single-dose administration", "setting": "[3]; single dose", "result": "up to 18 hours"}, {"measurement": "Concentration of drug in extracted brain tissue", "setting": "[4]", "result": "no measurable concentrations"}, {"measurement": "Duration of Action", "setting": "mechanical hyperalgesia [5]", "result": ">1", "unit": "h"}, {"measurement": "ED50 (I.V., mg/kg)", "setting": "mechanical hyperalgesia [5]; I.V., mechanical hyperalgesia", "result": 0.3, "unit": "mg/kg"}, {"measurement": "ED50 (I.V., mg/kg)", "setting": "tactile allodynia; Rat, I.V., L5/6 Spinal Nerve Ligation, tactile allodynia", "result": 0.3, "unit": "mg/kg"}, {"measurement": "Duration of Action", "setting": "tactile allodynia; Rat, L5/6 Spinal Nerve Ligation", "result": ">8", "unit": "h"}, {"measurement": "Paw withdrawal threshold", "setting": "tactile allodynia; rats, I.V. CR845 1 mg/kg, Chung Model", "result": "increase in the withdrawal threshold"}, {"measurement": "Duration of Action", "setting": "mechanical hyperalgesia [6]", "result": ">2", "unit": "h"}, {"measurement": "ED50 (I.V., mg/kg)", "setting": "mechanical hyperalgesia [6]; I.V., mechanical hyperalgesia", "result": 0.08, "unit": "mg/kg"}, {"measurement": "Duration of Action", "setting": "[7]", "result": ">18", "unit": "h"}, {"measurement": "ED50 (I.V., mg/kg)", "setting": "[7]; I.V.", "result": 0.07, "unit": "mg/kg"}, {"measurement": "Sedation, Ramsey Sedation Scale", "setting": "[8]; ascending dose-tolerance Phase 1 trial (Study 2048-001), I.V., healthy subjects", "result": "did not cause sedation"}, {"measurement": "Tolerability", "setting": "[8]; four Phase 1 clinical trials", "result": "generally well tolerated"}, {"measurement": "Greater reduction in pain intensity (PID) at 24 hours compared to Placebo/Placebo", "setting": "[9]", "result": "approximately 60%"}, {"measurement": "Improvement in mean SPID values 0-4 hour compared to Placebo/Placebo", "setting": "[9]", "result": 3.5, "unit": "fold"}, {"measurement": "Incidence of nausea, patients", "setting": "[9]", "result": 26.1, "unit": "%"}, {"measurement": "Incidence of vomiting, patients", "setting": "[9]", "result": 1.7, "unit": "%"}, {"measurement": "Mean TOTPAR0-2, pain relief within first 2 hours compared to Placebo/Placebo", "setting": "[9]", "result": "statistically superior pain relief"}, {"measurement": "Percentage of patients characterized as Responders (global evaluation of study medication) compared to placebo", "setting": "[9]", "result": "higher percentage"}, {"measurement": "Pruritus reported compared to placebo", "setting": "[9]", "result": "less pruritus"}, {"measurement": "Reduction of incidence of nausea versus placebo", "setting": "[9]", "result": "approximately 50%"}, {"measurement": "Reduction of incidence of vomiting versus placebo", "setting": "[9]", "result": "~80", "unit": "%"}, {"measurement": "SPID over 0-8, 0-12 and 0-16 time periods compared to Placebo/Placebo", "setting": "[9]", "result": "reduced pain intensity"}, {"measurement": "Blood sodium increase (hypernatremia), of total patients", "setting": "[9]; iv, 0.04 mg/kg", "result": 14, "unit": "%"}]}
{"smiles": "Oc1ccc2c3c1O[C@H]1c4[nH]c5c(c4C[C@@]4(O)[C@@H](C2)N(CC2CC2)CC[C@]314)C[C@@]1(O)[C@H]2Cc3ccc(O)c4c3[C@@]1(CCN2CC1CC1)[C@H]5O4", "note": "[nor-BNI, nor-binaltorphamine, reference compound]", "values": [{"measurement": "Effect of kappa antagonist on efficacy of CR845", "setting": "tactile allodynia; rats, 0.2 mg intraplantar into injured paw 15 min prior to CR845 1 mg/kg", "result": "significantly reduces the effect of CR845"}]}
